Patent US20250051338A1, “TYK2 DEGRADERS AND USES THEREOF” (Kymera Therapeutics, Inc., priority 2021, published 2025)

Columns and labels:
Assay type in all cases: cell-based
TYK2 [1] = molecular target: T1, TYK2 (Homo sapiens, UniProt P29597); assay: TYK2 degradation MSD assay in OCI-LY10 cells; design: endogenous in cells; host or cells: EBV-B cells; conditions: 4 to 24 hours incubation, read-out: TYK2 MSD DC50 rating in OCI-LY10
Experimental: (§1) Example 3. TYK2 Degradation MSD Assay in EBV-B, OCI-LY10, and Human PBMC Cells
(§2) Degradation of TYK2 in cells was quantitatively measured using Meso Scale Discovery (MSD) technology. EBV-B, OCI-LY10 or human PBMC cells were seeded in 96-well plates with a density of 0.4 million cells per well in 100 μl fresh media. Compounds were then added to the assay plates with a final top concentration of 1 to 10 μM in a 1:3 dilution series with total of 9 doses. The assay plates were then incubated for 4 to 24 hours at 37° C. under 5% CO2. The assay plates were then centrifuged for 5 minutes, and the cell pellets were treated with 100 μl/well RIPA lysis buffer (Boston Bioproducts, BP-115D) with protease and phosphatase inhibitors (Roche, 05892791001 and 04906837001). To prepare MSD assay plates (MSD, L15XA), the plates were coated with the capture antibody (Santa Cruz Biotechnology, SC-5271) in PBS, at 40 μl/well. The plates were then incubated overnight at 4° C., washed 3 times with 150 μl/well TBST buffer (Cell Signaling Technology, 9997S) and blocked with 150 μl/well blocking buffer (MSD, R93BA-4). Cell lysates were then added to MSD assay plates and the plates were incubated at room temperature for 1 hour. The plates were then washed 3 times with 150 μl/well TBST buffer and 25 μl/well primary detection antibody (Cell Signaling Technology, #9312). The assay plates were then incubated at room temperature for 1 hour, washed 3 times with 150 μl/well TBST buffer, and 25 μl/well secondary detection antibody, SULFO-TAG anti-rabbit antibody (MSD, R32AB-1) were added. The assay plates were then incubated at room temperature for 1 hour, washed 3 times with 150 μl/well TBST buffer, and 150 μl/well MSD reading buffer (MSD, R92TC-2) were added. The plates were then analyzed by an MSD reader. The data was analyzed by GraphPad Prism and the dose dependent TYK2 degradation was fit using the four-parameter inhibitor vs. response nonlinear regression. The DC50 data were measured and categorized into different levels in Table H. The compound with DC50 less than or equal to 1 nM is marked as A, with DC50 more than 1 nM and less than or equal to 10 nM is marked as B, with DC50 more than 10 nM and less than or equal to 100 nM is marked as C, and with DC50 more than 100 nM or not available is marked as D.

TYK2 [2] = molecular target: T1, TYK2; assay: TYK2 degradation MSD assay in EBV-B cells; design: endogenous in cells; host or cells: EBV-B cells; conditions: 4 to 24 hours incubation, read-out: TYK2 MSD DC50 rating in EBV-B
Experimental: as §1, §2

TYK2 [3] = molecular target: T1, TYK2; assay: TYK2 degradation MSD assay in human PBMC cells; design: endogenous in cells; host or cells: human PBMC; conditions: 4 to 24 hours incubation, read-out: TYK2 MSD DC50 rating in human PBMC
Experimental: as §1, §2

T1 sequence (P29597 whole entry): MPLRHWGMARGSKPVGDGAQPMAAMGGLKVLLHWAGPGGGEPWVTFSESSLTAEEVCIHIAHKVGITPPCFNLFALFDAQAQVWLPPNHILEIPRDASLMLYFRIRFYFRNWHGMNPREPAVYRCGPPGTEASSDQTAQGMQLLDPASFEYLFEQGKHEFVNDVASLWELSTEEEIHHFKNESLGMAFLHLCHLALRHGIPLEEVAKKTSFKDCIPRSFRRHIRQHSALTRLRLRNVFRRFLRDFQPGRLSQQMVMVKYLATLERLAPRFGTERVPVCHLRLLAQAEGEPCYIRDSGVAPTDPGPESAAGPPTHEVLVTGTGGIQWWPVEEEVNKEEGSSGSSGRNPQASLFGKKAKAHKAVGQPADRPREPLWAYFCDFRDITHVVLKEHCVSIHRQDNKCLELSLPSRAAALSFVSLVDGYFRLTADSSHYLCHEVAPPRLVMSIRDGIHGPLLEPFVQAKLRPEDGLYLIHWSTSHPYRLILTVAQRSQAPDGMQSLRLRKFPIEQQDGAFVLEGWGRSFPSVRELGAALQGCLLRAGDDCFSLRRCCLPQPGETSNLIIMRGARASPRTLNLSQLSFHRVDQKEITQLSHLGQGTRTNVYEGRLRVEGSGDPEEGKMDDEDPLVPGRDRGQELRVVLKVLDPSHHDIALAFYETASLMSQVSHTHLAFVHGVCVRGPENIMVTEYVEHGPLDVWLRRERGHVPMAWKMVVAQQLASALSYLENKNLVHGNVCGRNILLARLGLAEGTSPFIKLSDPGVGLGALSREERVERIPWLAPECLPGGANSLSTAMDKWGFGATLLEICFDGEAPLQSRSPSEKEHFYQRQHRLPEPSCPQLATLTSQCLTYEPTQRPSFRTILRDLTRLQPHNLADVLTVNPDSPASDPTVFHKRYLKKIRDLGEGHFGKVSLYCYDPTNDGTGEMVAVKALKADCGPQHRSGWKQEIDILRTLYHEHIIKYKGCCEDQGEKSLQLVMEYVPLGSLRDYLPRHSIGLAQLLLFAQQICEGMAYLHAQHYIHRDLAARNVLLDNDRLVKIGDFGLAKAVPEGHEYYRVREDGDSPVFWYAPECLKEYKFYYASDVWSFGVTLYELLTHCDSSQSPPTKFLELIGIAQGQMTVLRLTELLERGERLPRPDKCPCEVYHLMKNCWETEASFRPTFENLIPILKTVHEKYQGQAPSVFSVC

Row | Compound | DC50 (TYK2 [1]) | DC50 (TYK2 [2]) | DC50 (TYK2 [3])
1 | Cn1c(=O)n(C2CCC(=O)NC2=O)c2ccc(CCCCNc3cc(Nc4cccn(-c5ccccn5)c4=O)nn4c(C(=O)N[C@@H]5C[C@@H]5F)cnc34)cc21 (stereo partly drawn) [Example K204] | > 0.1 µM | > 0.1 µM | > 0.1 µM
2 | CNc1cc(Nc2cccn(-c3ccc(C(=O)NCCCCCCCc4cccc5c4n(C)c(=O)n5C4CCC(=O)NC4=O)cn3)c2=O)nn2c(C(=O)N[C@@H]3C[C@@H]3F)cnc12 (stereo partly drawn) [Example K265] | > 0.1 µM | > 0.1 µM | < 0.001 µM
3 | CNc1cc(Nc2ccccc2C(=O)NCCCCCCCCc2ccc3c(c2)n(C)c(=O)n3C2CCC(=O)NC2=O)nn2c(C(=O)N[C@@H]3C[C@@H]3F)cnc12 (stereo partly drawn) [Example K256] | > 0.1 µM | > 0.1 µM | < 0.001 µM
4 | CNc1cc(-c2cccc(C(=O)NCCCCCCc3ccc4c(c3)n(C)c(=O)n4C3CCC(=O)NC3=O)c2)nn2c(C(=O)N[C@@H]3C[C@@H]3F)cnc12 (stereo partly drawn) [Example K306] | > 0.1 µM | > 0.1 µM | > 0.1 µM
5 | CNc1cc(Nc2cccc(-c3ccc(CN4CCN(C5CCC(c6ccc(-c7ccc8c(c7)n(C)c(=O)n8C7CCC(=O)NC7=O)cc6)CC5)CC4)cn3)c2)nn2c(C(=O)N[C@@H]3C[C@@H]3F)cnc12 (stereo partly drawn) [Example K463] | 0.001 to 0.01 µM | > 0.1 µM | > 0.1 µM
6 | CNC(=O)c1cnc(Nc2ccc(CN(C)CC3CCN(Cc4cccc5c4n(C)c(=O)n5C4CCC(=O)NC4=O)CC3)cn2)cc1Nc1cccc(-c2ncc(F)cn2)c1OC (stereo not drawn) [Example K134] | > 0.1 µM | < 0.001 µM | < 0.001 µM
7 | CNc1cc(Nc2cccn(-c3ccc(C(=O)N4CCC(CN5CCCN(c6ccc(-c7ccc8c(c7)n(C)c(=O)n8C7CCC(=O)NC7=O)cn6)CC5)CC4)cn3)c2=O)nn2c(C(=O)N[C@@H]3C[C@@H]3F)cnc12 (stereo partly drawn) [Example K422] | < 0.001 µM | > 0.1 µM | > 0.1 µM
8 | CNc1cc(Nc2cccn(-c3cc(C(=O)NCCOCCOCCc4ccc5c(c4)n(C)c(=O)n5C4CCC(=O)NC4=O)ccn3)c2=O)nn2c(C(=O)N[C@@H]3C[C@@H]3F)cnc12 (stereo partly drawn) [Example K237] | > 0.1 µM | > 0.1 µM | > 0.1 µM
9 | CNC(=O)c1cnc(Nc2ccc(CN(C)CCCOC3CCN(c4ccc5c(c4)n(C)c(=O)n5C4CCC(=O)NC4=O)CC3)cn2)cc1Nc1cccc(-c2ncc(F)cn2)c1OC (stereo not drawn) [Example K157] | > 0.1 µM | < 0.001 µM | > 0.1 µM
10 | CNc1cc(Nc2cccn(-c3ccc(C(=O)N4CCN(CCc5ccc6c(c5)n(C)c(=O)n6C5CCC(=O)NC5=O)CC4)cn3)c2=O)nn2c(C(=O)N[C@@H]3C[C@@H]3F)cnc12 (stereo partly drawn) [Example K386] | > 0.1 µM | > 0.1 µM | < 0.001 µM
11 | CNC(=O)c1cnc(Nc2ccc(C(=O)NCCCCc3cccc4c3n(C)c(=O)n4C3CCC(=O)NC3=O)cn2)cc1Nc1ccccc1 (stereo not drawn) [Example K192] | 0.001 to 0.01 µM | > 0.1 µM | 0.001 to 0.01 µM
12 | CNc1cc(C2CCN(C(=O)CCCCCCCc3ccc4c(c3)n(C)c(=O)n4C3CCC(=O)NC3=O)CC2)nn2c(C(=O)N[C@@H]3C[C@@H]3F)cnc12 (stereo partly drawn) [Example K302] | > 0.1 µM | > 0.1 µM | > 0.1 µM
13 | Cn1c(=O)n(C2CCC(=O)NC2=O)c2cccc(CCCCNc3cc(Nc4cccn(-c5ccccn5)c4=O)nn4c(C(=O)N[C@@H]5C[C@@H]5F)cnc34)c21 (stereo partly drawn) [Example K205] | > 0.1 µM | > 0.1 µM | > 0.1 µM
14 | CNC(=O)c1cnc(Nc2ccc(C(=O)N(C)C3CCN(c4ccc5c(c4)n(C)c(=O)n5C4CCC(=O)NC4=O)CC3)cn2)cc1Nc1cccc(-c2ncc(F)cn2)c1OC (stereo not drawn) [Example K178] | > 0.1 µM | < 0.001 µM | < 0.001 µM
15 | CNC(=O)c1cnc(NC(=O)NCCCCCCCc2cccc3c2n(C)c(=O)n3C2CCC(=O)NC2=O)cc1Nc1cccc(-c2ncc(F)cn2)c1OC (stereo not drawn) [Example K185] | > 0.1 µM | > 0.1 µM | 0.001 to 0.01 µM
16 | [2H]C([2H])([2H])NC(=O)c1nnc(Nc2ccc(C(=O)N(C)C3CCN(c4cccc5c4n(C)c(=O)n5C4CCC(=O)NC4=O)CC3)cn2)cc1Nc1cccc(F)c1OC (stereo not drawn) [Example K710] | > 0.1 µM | < 0.001 µM | > 0.1 µM
17 | CNc1cc(Nc2cccn(-c3ccc(C(=O)NCc4ccc(N5CCC(N6CCC(c7ccc8c(c7)n(C)c(=O)n8C7CCC(=O)NC7=O)C6)CC5)cc4)cn3)c2=O)nn2c(C(=O)N[C@@H]3C[C@@H]3F)cnc12 (stereo partly drawn) [Example K370] | < 0.001 µM | < 0.001 µM | > 0.1 µM
18 | CNc1cc(Nc2cccn(-c3cc(C(=O)NCCOCCOCCOCCOCCOCCOCCc4ccc5c(c4)n(C)c(=O)n5C4CCC(=O)NC4=O)ccn3)c2=O)nn2c(C(=O)N[C@@H]3C[C@@H]3F)cnc12 (stereo partly drawn) [Example K245] | > 0.1 µM | > 0.1 µM | > 0.1 µM
19 | CNc1cc(Nc2cccc(-c3ccc(CN4CCN(c5ccc(-c6ccc7c(c6)n(C)c(=O)n7C6CCC(=O)NC6=O)cc5)CC4)cn3)c2OC)nn2c(C(=O)NC(C)C)cnc12 (stereo not drawn) [Example K528] | 0.001 to 0.01 µM | > 0.1 µM | > 0.1 µM
20 | CNC(=O)c1cnc(Nc2ccc(CN3CC(c4cccc5c4n(C)c(=O)n5C4CCC(=O)NC4=O)C3)cn2)cc1Nc1cccc(-c2ncc(F)cn2)c1OC (stereo not drawn) [Example K198] | > 0.1 µM | > 0.1 µM | < 0.001 µM
21 | CNC(=O)c1cnc(NC(=O)NCCCCCCCCCc2ccc3c(c2)n(C)c(=O)n3C2CCC(=O)NC2=O)cc1Nc1cccc(-c2ncc(F)cn2)c1OC (stereo not drawn) [Example K186] | > 0.1 µM | > 0.1 µM | 0.001 to 0.01 µM
22 | CNc1cc(-c2ccc(-c3ccc(CN4CCC(N5CC(N6CCN(c7ccc8c(c7)n(C)c(=O)n8C7CCC(=O)NC7=O)CC6)C5)CC4)cn3)cc2)nn2c(C(=O)N[C@@H]3C[C@@H]3F)cnc12 (stereo partly drawn) [Example K480] | < 0.001 µM | > 0.1 µM | > 0.1 µM
23 | CNc1cc(Nc2cccn(-c3ccc(C(=O)N4CCC5(CC4)CC(Cc4ccc6c(c4)n(C)c(=O)n6C4CCC(=O)NC4=O)C5)cn3)c2=O)nn2c(C(=O)N[C@@H]3C[C@@H]3F)cnc12 (stereo partly drawn) [Example K391] | > 0.1 µM | < 0.001 µM | < 0.001 µM
24 | CNc1cc(Nc2cccc(CN3CCC4(CC3)CC(Cc3ccc5c(c3)n(C)c(=O)n5C3CCC(=O)NC3=O)C4)c2)nn2c(C(=O)NC3CC3)cnc12 (stereo not drawn) [Example K584] | > 0.1 µM | > 0.1 µM | > 0.1 µM
25 | CNc1cc(-c2cnn(C3CCN(C(=O)NCCCCCCCCc4ccc5c(c4)n(C)c(=O)n5C4CCC(=O)NC4=O)CC3)c2)nn2c(C(=O)N[C@@H]3C[C@@H]3F)cnc12 (stereo partly drawn) [Example K296] | > 0.1 µM | > 0.1 µM | < 0.001 µM
26 | CNc1cc(N2CCc3c(-c4ccc(CN5CCN(c6ccc(-c7cccc8c7n(C)c(=O)n8C7CCC(=O)NC7=O)cc6)CC5)cn4)cccc32)nn2c(C(=O)N[C@@H]3C[C@@H]3F)cnc12 (stereo partly drawn) [Example K494] | 0.01 to 0.1 µM | > 0.1 µM | > 0.1 µM
27 | CNc1cc(Nc2cccc(C(=O)NCCCCCCc3ccc4c(c3)n(C)c(=O)n4C3CCC(=O)NC3=O)c2)nn2c(C(=O)N[C@@H]3C[C@@H]3F)cnc12 (stereo partly drawn) [Example K249] | > 0.1 µM | > 0.1 µM | > 0.1 µM
28 | CNc1cc(Nc2cccn(-c3ccc(C(=O)NCCCCCCCCc4cncc(N5CCC[C@H](C(=O)Nc6ccc(=O)n(CC(=O)OC)c6)C5)c4)cn3)c2=O)nn2c(C(=O)N[C@@H]3C[C@@H]3F)cnc12 [Example K599] | > 0.1 µM | > 0.1 µM | > 0.1 µM
29 | Cn1c(=O)n(C2CCC(=O)NC2=O)c2ccc(N3CCN(C4CN(C5CCN(Cc6ccc(-c7cccc(Nc8ccc9ncc(C(=O)NC%10CC%10)n9n8)c7)nc6)CC5)C4)CC3)cc21 (stereo not drawn) [Example K524] | > 0.1 µM | > 0.1 µM | > 0.1 µM
30 | CNC(=O)c1cnc(Nc2ccc(CN3CCC(OC4CC(c5cccc6c5n(C)c(=O)n6C5CCC(=O)NC5=O)C4)CC3)cn2)cc1Nc1cccc(-c2ncc(F)cn2)c1OC (stereo not drawn) [Example K141] | < 0.001 µM | > 0.1 µM | < 0.001 µM
